Laboratory results taken from US20170121344A1 (Siga Technologies, Inc., priority 2009, published 2017).
Where two headings read alike, the source gives them in different places.

Tested on: Dengue-2 (Strain New Guinea C)
Test: Viral yield assay against Dengue-2 in Vero cells
Assay type: cell-based, Dengue virus
Details: Dengue virus
How it was run: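 Progeny virus from compound-treated Vero monolayers infected at an MOI of 0.1 is collected after 48 h at 37° C and titered on Vero cells. DMSO serves as control.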

[1] = Vero cells, MOI 0.1, harvested 48 hours post infection, read-out: Activity (EC50 class) against Dengue-2 Virus in Vero cells
[2] = DENV2, viral yield assay, Vero cells, MOI 0.1, 48 hours post infection, read-out: Activity (EC50 in μM) DENV-2
[3] = Vero, 48 h, read-out: Activity (EC50 class) against Dengue-2 Virus in Vero cells

Compound: CN1CCc2nc3sc(C(=O)Nc4ccc(F)c(Cl)c4)c(N)c3cc2C1 [Compound 110, 3-Amino-6-methyl-5,6,7,8-tetrahydro-thieno[2,3-b][1,6]naphthyridine-2-carboxylic acid (3-chloro-4-fluoro-phenyl)-amide]
- EC50 [1]: 5 to 25 µM

Compound: COc1cccc(-c2ccc3c(N)c(C(=O)Nc4cccc(C)c4C)sc3n2)c1 [Compound 562, 3-amino-N-(2,3-dimethylphenyl)-6-(3-methoxyphenyl)thieno[2,3-b]pyridine-2-carboxamide]
- EC50 [2]: < 5 µM

Compound: CN1CCc2nc3sc(C(=O)Nc4ccc(Cl)cc4)c(N)c3cc2C1 [Compound 13, 3-Amino-6-methyl-5,6,7,8-tetrahydro-thieno[2,3-b][1,6]naphthyridine-2-carboxylic acid (4-chloro-phenyl)-amide]
- EC50 [3]: < 5 µM

Compound: Nc1c(C(=O)N(CC(=O)O)c2cccc(C(F)(F)F)c2)sc2nc(-c3cccs3)ccc12 [Compound 326]
- EC50 [2]: < 5 µM

Compound: COC(=O)c1cc(OC)c(OC)cc1NC(=O)c1sc2nc3c(cc2c1N)CN(C)CC3 [Compound 263, 2-[(3-Amino-6-methyl-5,6,7,8-tetrahydro-thieno[2,3-b][1,6]naphthyridine-2-carbonyl)-amino]-4,5-dimethoxy-benzoic acid methyl ester]
- EC50 [1]: > 25 µM

Compound: CCN1CCc2nc3sc(C(=O)N4CCc5ccccc5C4)c(N)c3cc2C1 [Compound 22, (3-Amino-6-ethyl-5,6,7,8-tetrahydro-thieno[2,3-b][1,6]naphthyridin-2-yl)-(3,4-dihydro-1H-isoquinolin-2-yl)-methanone]
- EC50 [3]: < 5 µM

Compound: Cc1cc(C)c2c(N)c(C(=O)Nc3ccc4ccccc4c3)sc2n1 [Compound 83, 3-Amino-4,6-dimethyl-thieno[2,3-b]pyridine-2-carboxylic acid naphthalen-2-ylamide]
- EC50 [1]: 5 to 25 µM

Compound: COc1cccc(-c2ccc3c(N)c(C(=O)Nc4ccc(C)c(Cl)c4)sc3n2)c1 [Compound 544, 3-amino-N-(3-chloro-4-mehtyl-phenyl)-6-(3-methoxyphenyl)thieno[2,3-b] pyridine-2-carboxamide]
- EC50 [2]: < 5 µM

Compound: Cc1cc(C(F)(F)F)c2c(N)c(C(=O)Nc3cccc4ccccc34)sc2n1 [Compound 128, 3-Amino-6-methyl-4-trifluoromethyl-thieno[2,3-b]pyridine-2-carboxylic acid naphthalen-1-ylamide]
- EC50 [1]: > 25 µM

Compound: Nc1c(C(=O)Nc2ccc([N+](=O)[O-])cc2)sc2nc3c(c(-c4ccco4)c12)CCC3 [Compound 212, 3-Amino-4-furan-2-yl-6,7-dihydro-5H-cyclopenta[b]thieno[3,2-e]pyridine-2-carboxylic acid (4-nitro-phenyl)-amide]
- EC50 [1]: > 25 µM

Compound: Nc1c(C(=O)Nc2nccs2)sc2nc(-c3ccccc3)cc(C(F)(F)F)c12 [Compound 192, 3-Amino-6-phenyl-4-trifluoromethyl-thieno[2,3-b]pyridine-2-carboxylic acid thiazol-2-ylamide]
- EC50 [1]: > 25 µM

Compound: CC(=O)c1cc2c(N)c(C(=O)NC34CC5CC(CC(C5)C3)C4)sc2nc1C [Compound 142, 5-Acetyl-3-amino-6-methyl-thieno[2,3-b]pyridine-2-carboxylic acid adamantan-1-ylamide]
- EC50 [1]: > 25 µM

Compound: CCN(CC)C(=O)c1sc2nc(-c3ccccc3)cc(C(F)(F)F)c2c1N [Compound 196, 3-Amino-6-phenyl-4-trifluoromethyl-thieno[2,3-b]pyridine-2-carboxylic acid diethylamide]
- EC50 [1]: > 25 µM

Compound: Cc1ccc(Cl)cc1NC(=O)c1sc2nc(-c3ccc(F)cc3)ccc2c1N [Compound 621, 3-amino-N-(5-chloro-2-methyl-phenyl)-6-(4-fluorophenyl)thieno[2,3-b]pyridine-2-carboxamide]
- EC50 [2]: < 5 µM

Compound: CCN(C(=O)c1sc2nc(C)cc(C(F)(F)F)c2c1C)c1ccccc1 [Compound 406]
- EC50 [2]: < 5 µM

Compound: Nc1c(C(=O)Nc2ccc3ccccc3c2)sc2nc3c(cc12)CCC3 [Compound 91, 3-Amino-6,7-dihydro-5H-cyclopenta[b]thieno[3,2-e]pyridine-2-carboxylic acid naphthalen-2-ylamide]
- EC50 [3]: 5 to 25 µM
